Results from patent publication US9475759B2, “Tigecycline crystalline hydrate and preparation method therefor and use thereof” (priority 2011, dated 2016).

Experiment: Test for hygroscopicity (hygroscopic weight gain)
Assay type: physicochemical
Settings: 25° C., relative humidity about 70%, about 5 g sample, sampling time 12 hours
Experimental: The tigecycline crystalline hydrates according to the invention can be stable for storage. A hygroscopicity test is conducted directed to a tigecycline hydrate sample and a tigecycline anhydride sample: about 5 g of the tigecycline anhydride and 5 g of the hydrate of the invention are taken, and they are placed in a dry and weight-constant surface vessel and precisely weighted. […] On the conditions of RH 75% and 30° C., the tigecycline crystalline hydrate is sealed in a vial for conducting a six-month acceleration stability test. According to the testing conditions of HPLC process of the tigecycline in relevant literatures: C18 (250 mm×4.6 mm, 5 μm) acetonitrile:phosphate buffer (1.29 g of citric acid and 2.76 g of anhydrous disodium hydrogen phosphate are dissolved in water and diluted to 1000 ml) (80:20) as the mobile phase; detection wavelength is 248 nm; the column temperature is room temperature; and the flowing rate is 1 ml/min. Under the conditions, the tigecycline contents and related substances are determined.
The tigecycline hydrates of the present invention may be stable for storage. Samples of tigecycline hydrates and anhydrides and amorphous tigecycline are used to conduct the test for hygroscopicity: respectively, about 5 g tigecycline anhydrides (obtained by drying tigecycline.0.5H2O hydrate prepared according to Example 1), about 5 g amorphous tigecycline (prepared by referring to the process as described in the reference document CN101367747A) and about 5 g the hydrates of the present invention are placed in a dry and constant weight watch glass, and the system is precisely weighed.

Row | Compound | As compared to the sample time of 0 h, weight gains %
1 | CN(C)c1cc(NC(=O)CNC(C)(C)C)c(O)c2c1C[C@H]1C[C@H]3[C@H](N(C)C)C(O)=C(C(N)=O)C(=O)[C@@]3(O)C(O)=C1C2=O [Amorphous tigecyline, tigecycline] | 1.3%
2 | CN(C)c1cc(NC(=O)CNC(C)(C)C)c(O)c2c1C[C@H]1C[C@H]3[C@H](N(C)C)C(O)=C(C(N)=O)C(=O)[C@@]3(O)C(O)=C1C2=O [Tigecycline anhydride] | 1.4%
3 | CN(C)c1cc(NC(=O)CNC(C)(C)C)c(O)c2c1C[C@H]1C[C@H]3[C@H](N(C)C)C(O)=C(C(N)=O)C(=O)[C@@]3(O)C(O)=C1C2=O.CN(C)c1cc(NC(=O)CNC(C)(C)C)c(O)c2c1C[C@H]1C[C@H]3[C@H](N(C)C)C(O)=C(C(N)=O)C(=O)[C@@]3(O)C(O)=C1C2=O.O [Tigecycline•0.5 H2O hydrate, Tigecycline.0.5H2O Hydrate] | 0.2%
4 | CN(C)c1cc(NC(=O)CNC(C)(C)C)c(O)c2c1CC1CC3C(N(C)C)C(O)=C(C(N)=O)C(=O)C3(O)C(O)=C1C2=O.O.O (stereo not shown) [Tigecycline•2 H2O hydrate, Tigecycline.2H2O Hydrate] | 0.1%
